Data on 6 compounds can be found in ChEMBL document CHEMBL1151327, “Cytotoxicity of curcuminoids and some novel compounds from Curcuma zedoaria” (1998).

The structures appear in SMILES notation. Values after ≈ are worked out from the molar mass of the structure shown. Active and inactive are the calls of the source. The rule behind the calls is not given here.

The subject of the first assay is OVCAR-3. As to the kind of experiment: Cytotoxicity against human OVCAR-3 after 48 hrs. It counts as functional. The settings on record: OVCAR-3, 48 h, read-out: CD50 (the source's name).
Consider `O=C(/C=C/c1ccc(O)cc1)CC(=O)/C=C/c1ccc(O)cc1` [BISDEMETHOXYCURCUMIN], for which the CC50 came out at 3.1 µg/mL (≈ 10.1 µM).
Same read-out and setting: then `COc1cc(/C=C/C(=O)CC(=O)/C=C/c2ccc(O)c(OC)c2)ccc1O` [CURCUMIN], with 4.4 µg/mL (≈ 11.9 µM); and `COc1cc(/C=C/C(O)=C/C(=O)/C=C/c2ccc(O)cc2)ccc1O` [DEMETHOXYCURCUMIN], with 3.8 µg/mL (≈ 11.2 µM).

The next assay has as its system OVCAR-3. Kind of assay: Cytotoxicity against human OVCAR-3 upto 20 ug/mL after 48 hrs. It counts as functional, cell-based.
Conditions: not given
`C=C(C)[C@@H]1CC[C@](C)(O)[C@H]2CC[C@](C)(O)[C@H]2C1`: the outcome was inactive.
Same read-out and setting: next, `Cc1cc(C(=O)O)cc2c1CCC2C` (stereo unspecified): “inactive”; `Cc1coc2c1C(=O)[C@@H]1[C@@](C)(C2)[C@H](O)CC[C@@]1(C)O`: “inactive”.
